Assay results taken from the NIST ThermoML archive (doi:10.1021/je200793z).
± gives the expanded uncertainty stated by the source.

Columns and labels:
[1] = xn = mol fraction of the nth substance listed

CCC(C)CO (centres undefined) [2-methyl-1-butanol]
Settings | surface tension liquid-gas [mN/m]
293.15 K | 24.09 ± 0.18
298.15 K | 23.61 ± 0.18
303.15 K | 23.14 ± 0.17
308.15 K | 22.69 ± 0.17
313.15 K | 22.3 ± 0.17
318.15 K | 21.86 ± 0.17
323.15 K | 21.44 ± 0.17

CCC(C)CO (centres undefined) [2-methyl-1-butanol] + CCO
surface tension liquid-gas [mN/m], [1]
Settings | 293.15 K | 298.15 K | 303.15 K | 308.15 K | 313.15 K | 318.15 K | 323.15 K
x1 = 0.0268 | 22.48 ± 0.14 | 22.1 ± 0.14 | 21.71 ± 0.14 | 21.39 ± 0.14 | 21.04 ± 0.14 | 20.68 ± 0.14 | 20.36 ± 0.13
x1 = 0.0549 | 22.65 ± 0.14 | 22.25 ± 0.14 | 21.9 ± 0.14 | 21.56 ± 0.14 | 21.22 ± 0.14 | 20.9 ± 0.14 | 20.55 ± 0.14
x1 = 0.0845 | 22.76 ± 0.14 | 22.37 ± 0.14 | 21.99 ± 0.14 | 21.67 ± 0.14 | 21.33 ± 0.14 | 21 ± 0.14 | 20.64 ± 0.14
x1 = 0.1156 | 22.86 ± 0.14 | 22.47 ± 0.14 | 22.1 ± 0.14 | 21.75 ± 0.14 | 21.44 ± 0.14 | 21.08 ± 0.14 | 20.73 ± 0.14
x1 = 0.1484 | 22.96 ± 0.14 | 22.54 ± 0.14 | 22.17 ± 0.14 | 21.82 ± 0.14 | 21.49 ± 0.14 | 21.12 ± 0.14 | 20.81 ± 0.14
x1 = 0.183 | 23.01 ± 0.15 | 22.62 ± 0.14 | 22.23 ± 0.14 | 21.89 ± 0.14 | 21.54 ± 0.14 | 21.2 ± 0.14 | 20.86 ± 0.14
x1 = 0.2584 | 23.15 ± 0.15 | 22.72 ± 0.15 | 22.35 ± 0.15 | 22 ± 0.14 | 21.61 ± 0.14 | 21.24 ± 0.14 | 20.91 ± 0.14
x1 = 0.3433 | 23.28 ± 0.15 | 22.86 ± 0.15 | 22.46 ± 0.15 | 22.11 ± 0.15 | 21.76 ± 0.15 | 21.37 ± 0.14 | 20.98 ± 0.14
x1 = 0.4395 | 23.43 ± 0.15 | 22.98 ± 0.15 | 22.58 ± 0.15 | 22.22 ± 0.15 | 21.83 ± 0.15 | 21.44 ± 0.15 | 21.05 ± 0.15
x1 = 0.5495 | 23.56 ± 0.16 | 23.09 ± 0.16 | 22.69 ± 0.16 | 22.3 ± 0.15 | 21.94 ± 0.15 | 21.54 ± 0.15 | 21.15 ± 0.15
x1 = 0.6765 | 23.72 ± 0.16 | 23.25 ± 0.16 | 22.82 ± 0.16 | 22.41 ± 0.16 | 22.02 ± 0.16 | 21.61 ± 0.16 | 21.27 ± 0.15
x1 = 0.8247 | 23.89 ± 0.17 | 23.38 ± 0.17 | 22.96 ± 0.17 | 22.54 ± 0.16 | 22.13 ± 0.16 | 21.7 ± 0.16 | 21.33 ± 0.16
x1 = 1 | 24.09 ± 0.18 | 23.61 ± 0.18 | 23.14 ± 0.17 | 22.69 ± 0.17 | 22.3 ± 0.17 | 21.86 ± 0.17 | 21.44 ± 0.17

CCC(C)(C)O [2-methylbutan-2-ol]
Settings | surface tension liquid-gas [mN/m]
293.15 K | 24.04 ± 0.16
298.15 K | 23.61 ± 0.16
303.15 K | 23.14 ± 0.15
308.15 K | 22.69 ± 0.15
313.15 K | 22.3 ± 0.15
318.15 K | 21.86 ± 0.15
323.15 K | 21.44 ± 0.15

CCC(C)(C)O [2-methylbutan-2-ol] + CCO
surface tension liquid-gas [mN/m], [1]
Settings | 293.15 K | 298.15 K | 303.15 K | 308.15 K | 313.15 K | 318.15 K | 323.15 K
x1 = 0.0268 | 22.5 ± 0.12 | 22.05 ± 0.12 | 21.67 ± 0.12 | 21.34 ± 0.12 | 20.93 ± 0.11 | 20.58 ± 0.11 | 20.22 ± 0.11
x1 = 0.0549 | 22.66 ± 0.12 | 22.23 ± 0.12 | 21.85 ± 0.12 | 21.51 ± 0.12 | 21.16 ± 0.12 | 20.82 ± 0.12 | 20.48 ± 0.11
x1 = 0.0845 | 22.78 ± 0.12 | 22.36 ± 0.12 | 21.98 ± 0.12 | 21.64 ± 0.12 | 21.3 ± 0.12 | 20.97 ± 0.12 | 20.62 ± 0.12
x1 = 0.1156 | 22.88 ± 0.12 | 22.46 ± 0.12 | 22.08 ± 0.12 | 21.75 ± 0.12 | 21.41 ± 0.12 | 21.07 ± 0.12 | 20.72 ± 0.12
x1 = 0.1484 | 22.97 ± 0.12 | 22.54 ± 0.12 | 22.16 ± 0.12 | 21.83 ± 0.12 | 21.48 ± 0.12 | 21.14 ± 0.12 | 20.79 ± 0.12
x1 = 0.183 | 23.04 ± 0.12 | 22.61 ± 0.12 | 22.23 ± 0.12 | 21.89 ± 0.12 | – | 21.2 ± 0.12 | 20.84 ± 0.12
x1 = 0.2584 | 23.16 ± 0.13 | 22.73 ± 0.12 | 22.34 ± 0.12 | 21.99 ± 0.12 | – | 21.28 ± 0.12 | 20.92 ± 0.12
x1 = 0.3433 | 23.28 ± 0.13 | 22.84 ± 0.13 | 22.45 ± 0.13 | 22.09 ± 0.13 | 21.73 ± 0.12 | 21.36 ± 0.12 | 21 ± 0.12
x1 = 0.4395 | 23.41 ± 0.13 | 22.97 ± 0.13 | 22.56 ± 0.13 | 22.19 ± 0.13 | 21.82 ± 0.13 | 21.45 ± 0.13 | 21.08 ± 0.13
x1 = 0.5495 | 23.55 ± 0.14 | 23.1 ± 0.14 | 22.68 ± 0.13 | 22.29 ± 0.13 | 21.92 ± 0.13 | 21.53 ± 0.13 | 21.16 ± 0.13
x1 = 0.6765 | 23.7 ± 0.14 | 23.24 ± 0.14 | 22.81 ± 0.14 | 22.4 ± 0.14 | 22.02 ± 0.14 | 21.62 ± 0.14 | 21.23 ± 0.13
x1 = 0.8247 | 23.88 ± 0.15 | 23.41 ± 0.15 | 22.96 ± 0.15 | 22.53 ± 0.14 | 22.15 ± 0.14 | 21.73 ± 0.14 | 21.34 ± 0.14
x1 = 1 | 24.04 ± 0.16 | 23.61 ± 0.16 | 23.14 ± 0.15 | 22.69 ± 0.15 | 22.3 ± 0.15 | 21.86 ± 0.15 | 21.44 ± 0.15
